Assay results: PMC10492782, “Exploiting the aggregation propensity of beta-lactamases to design inhibitors that induce enzyme misfolding” (Nature Communications, 2023)

Key:
E. coli TEM-30 = assay type: cell-based, Escherichia coli
Method: (§1) Beta-lactamase clinical samples were collected from University Hospitals Leuven and tested for ESBL production using the disk diffusion method. The beta-lactamase reference isolates were purchased from International Health Management Associates (IHMA). Bacterial strains were cultivated in Mueller–Hinton Broth (MHB, Difco) at 37 °C. Whenever required, growth media were supplemented with appropriate antibiotics to the medium or plates (kanamycin 30 µg/mL, L-arabinose 0.5 mg/mL, and IPTG […]). Escherichia coli BL21 (ThermoFisher Scientific, Belgium) was used for cloning and plasmid amplification. For the selection of antibiotic resistant colonies, E. coli carrying plasmids was grown in LB agar plates supplemented with the relevant antibiotic. Bacterial CFU counting was done on blood agar plates (BD Biosciences, Belgium) or MHA agar plates. Species identification and antibiograms for all clinical isolates were performed using MALDI-Tof and VITEK® 2 automated system (BioMérieux, France).
(§2) Khodaparast et al Supplementary data
(§3) study. […] Abbreviations: S,
(§4) susceptible; I, intermediate; R, resistant.

[1] = tested on: uro-pathogenic E. coli strain (UPEC strain blaTEM-1); experiment: MIC of ampicillin with or without 32 µg/mL TEM3.2 or tazobactam; assay type: cell-based, Escherichia coli; conditions: Escherichia coli; no additive
Method: We also performed a tolerability study using a dose escalation method by administering the peptide at 2, 5, 10, 15, and 20 mg/kg via different parenteral routes: intravenous (IV), intraperitoneal (IP), and subcutaneous (SC) in female C57BL/6JAX mice, aged 8–10 weeks (Suppl Table 4). […] Vehicle alone (0.9% NaCl) was also administered (IV). After 24 h the animals were sacrificed and the bacterial load in the bladder, kidney, and ureter was quantified by determining the number of colony-forming units (CFU) per mL of tissue extract (Fig. 7E–G).
Determination of MIC values was performed using the broth microdilution method according to the EUCAST guideline, which was performed in 96-well polystyrene flat-bottom microtiter plates (BD Biosciences). Briefly, a single colony was inoculated into 5 mL Difco™ Mueller–Hinton Broth (BD Biosciences Ref 275730) and grown to the end-exponential growth phase in a shaking incubator at 37 °C. Cultures were subsequently diluted to a MacFarland (0.5 optical density) to reach 10^6 CFU/mL in fresh MHB medium. 50 µl of different concentrations of peptides ranging from 128 to 2 µg/mL were serially diluted to the sterile 96-well plate in MHB. 50 µL of the diluted bacteria in MHB were next pipetted into 96-well plates to reach the final volume of 100 µL. The bacteria grown with the maximum concentration of carrier and medium were considered positive and negative controls, respectively. The plates were statically incubated overnight at 37 °C to allow bacterial growth. OD was measured at 590 nm using a multipurpose ultraviolet–visible plate reader, and the absorbance of the bacterial growth was measured using an absorbance reader.

VIM-1 = conditions: ampicillin as substrate; cited from earlier work
Excerpt: (§5) Abbreviations: S, susceptible; I, intermediate; R, resistant.

OXA-48 = conditions: ampicillin as substrate; cited from earlier work
Excerpt: as §5

NDM-5 = conditions: ampicillin as substrate; cited from earlier work
TEM-1 [2] = conditions: ampicillin as substrate; cited from earlier work
E. coli NDM5b = experiment: VITEK 2 AST antimicrobial susceptibility testing; assay type: cell-based, Escherichia coli
Method: as §1, §2, §3, §4

E. coli TEM-206 = experiment: VITEK 2 AST antimicrobial susceptibility testing; assay type: cell-based, Escherichia coli; conditions: E. coli TEM-206
Method: as §1, §2, §3, §4

E. coli TEM-148 = experiment: VITEK 2 AST antimicrobial susceptibility testing; assay type: cell-based, Escherichia coli
Method: as §1, §2, §3, §4

E. coli TEM-16 = experiment: VITEK 2 AST antimicrobial susceptibility testing; assay type: cell-based, Escherichia coli
Method: as §1, §2, §3, §4

E. coli NDM5a = experiment: VITEK 2 AST antimicrobial susceptibility testing; assay type: cell-based, Escherichia coli
Method: as §1, §2, §3, §4

E. coli TEM-104 = experiment: VITEK 2 AST antimicrobial susceptibility testing; assay type: cell-based, Escherichia coli
Method: as §1, §2, §3, §4

E. coli SHV1 (APHA) = experiment: VITEK 2 AST antimicrobial susceptibility testing; assay type: cell-based, Escherichia coli
Method: as §1, §2, §3, §4

TEM-1 [3] = target: TEM-1 (Escherichia coli, UniProt P62593); assay type: biochemical, E. coli; parameters: His-tag (N); TEV cleavage site (N); made in house; host or cells: E. coli BL21 (DE3); conditions: static light scattering during temperature ramp, inhibitor titration
Chain of TEM-1 (Escherichia coli, UniProt P62593) (P62593 24-286 limits assumed): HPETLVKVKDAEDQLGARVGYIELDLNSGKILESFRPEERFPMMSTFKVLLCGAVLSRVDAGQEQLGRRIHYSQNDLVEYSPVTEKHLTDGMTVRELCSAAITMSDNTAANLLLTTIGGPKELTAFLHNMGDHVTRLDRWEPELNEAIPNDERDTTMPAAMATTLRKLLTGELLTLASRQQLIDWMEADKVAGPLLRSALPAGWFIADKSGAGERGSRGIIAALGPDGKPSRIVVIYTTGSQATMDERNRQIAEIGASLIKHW
Excerpt: Then, we performed a thermal denaturation whilst simultaneously monitoring the intrinsic fluorescence as a measure of the folding status of the molecule (Fig. 1D and Supplementary Fig. 2D) and the static light scattering as a measure of aggregation (Fig. 1E and Supplementary Fig. 2E).
D Heat denaturation of TEM-1 monitored by intrinsic fluorescence plotted as the BaryCentric Mean (BCM) of the fluorescence emission spectrum in the presence (red) and absence (blue) of tazobactam. […] E Temperature-dependent evolution of the Right-Angle Light Scattering (RALS) intensity measured simultaneously with the data in D to monitor protein aggregation. […] F Same data as in E, but showing a dose-titration of the beta-lactamase inhibitor tazobactam.

E. coli UZ_TEM104 = experiment: FACS with pFTAA (aggregation) and propidium iodide (cell death); assay type: cell-based, Escherichia coli; conditions: 4 h; penicillin G 400 μg/mL and/or TEM3.2 50 μg/mL
Method: Fig. 6 Uptake and inclusion body formation upon peptide treatment. Fluorescence-activated cell-sorting (FACS) (A) of E. coli strain UZ_TEM104 mixed 50–50% with the same strain after heat-inactivation. The cells were stained with pFTAA to monitor aggregation and propidium iodide (PI) to monitor cell permeabilization associated with cell death. 10^6 cells were analyzed for the plot. […] B Similar FACS analysis as in A, but with a sample of live bacteria only. […] Note: the horizontal and vertical lines correspond to the gatings used to obtain the quantifications shown in the corners of each image.
Treated bacteria were washed with PBS buffer two times. One microliter of PI (Invitrogen) was added to the bacteria and incubated for 5 min. The bacteria were counted by FACS to reach 40000 events. To correlate the activity of the peptides with cell death, the fluorescence intensity was measured in two channels using the Gallios^TM Flow Cytometer (Beckman Coulter, USA), PI: excitation 536 nm and emission 617 nm, FITC: excitation 490 nm and emission 525 nm. Heated bacteria at 90 °C for 10 min were used as PI-positive control.
The bacterial cultures were washed with PBS, and the number of bacteria was adjusted to 10^8–10^9 cells/mL. […] Then, cells were treated with LCO dyes (pFTAA; Amytacker^TM680 or Amytacker^TM545: final concentration of 0.5 µM; Ebba Biotech, Sweden) for at least 90 min. The absorption, emission, and excitation spectra for each dye were measured based on the standard Ebbabiotec advice (ebbabiotech.com).

E. coli strain UZ_TEM104 = experiment: microbe, parasite or virus in culture; assay type: cell-based, Escherichia coli; conditions: Escherichia coli, read-out: MIC penicillin

With `CC1(C)S[C@@H]2[C@H](NC(=O)[C@H](N)c3ccccc3)C(=O)N2[C@H]1C(=O)O` [Ampicillin] the Interoretation (E. coli TEM-30; E. coli TEM-30) was “R”, the Interpretation (E. coli TEM-30; VITEK 2 AST card) was “R” and the MIC [1] was 1200 µg/mL. For the same compound, the Kcat (VIM-1) was 37 s⁻¹, the Km (VIM-1) was 917 µM and the Kcat (OXA-48) was 955 s⁻¹. The Km (OXA-48) was 395 µM, the Kcat (NDM-5) was 1912 s⁻¹ and the Km (NDM-5) was 118 µM. For the same compound, the Kcat (TEM-1 [2]) was 1428 s⁻¹, the Km (TEM-1 [2]) was 50 µM and the Interoretation (E. coli NDM5b; E. coli NDM5b) was “R”. The Interpretation (E. coli NDM5b; VITEK 2 AST card) was “R”, the Interoretation (E. coli TEM-206) was “R” and the Interoretation (E. coli TEM-148; E. coli TEM-148) was “R”. For the same compound, the Interpretation (E. coli TEM-148; VITEK 2 AST card) was “R”, the Interoretation (E. coli TEM-16; E. coli TEM-16) was “R” and the Interpretation (E. coli TEM-16; VITEK 2 AST card) was “R”. The Interoretation (E. coli NDM5a; E. coli NDM5a) was “R”, the Interpretation (E. coli NDM5a; VITEK 2 AST card) was “R” and the Interoretation (E. coli TEM-104; E. coli TEM-104) was “R”. For the same compound, the Interpretation (E. coli TEM-104; VITEK 2 AST card) was “R”, the Interoretation (E. coli SHV1 (APHA); E. coli SHV154) was “R” and the Interpretation (E. coli SHV1 (APHA); VITEK 2 AST card) was “R”.

For `NC(=O)[C@@H]1CC[C@@H]2CN1C(=O)N2OS(=O)(=O)O` [avibactam], the “effect on aggregation of TEM-1, dose-response (in words)” value (TEM-1 [3]) was “reduce the aggregation of the enzyme in a dose-responsive manner”.

In the case of `O=C(O)[C@H]1/C(=C/CO)O[C@@H]2CC(=O)N21` [clavulanate], the “effect on aggregation of TEM-1, dose-response (in words)” value (TEM-1 [3]) is reported as “reduce the aggregation of the enzyme in a dose-responsive manner”.

For `CC1(C)S[C@@H]2[C@H](NC(=O)Cc3ccccc3)C(=O)N2[C@H]1C(=O)O` [penicillin G, Benzylpenicillin sodium], the “shift in pFTAA and PI channels (in words)” value (E. coli UZ_TEM104) was “no major change in either channel” and the MIC (E. coli strain UZ_TEM104) was 1600 µg/mL.
